# Measured values as given in patent US20040235939A1, “Synthesis of peloruside a and analogs thereof for use as antitumor agents” (priority 2003, published 2004).
# Read-outs that look alike come from different tables or passages of the source.
# Assays:
# A498 = experiment: SRB cytotoxicity assay, A498; assay type: cell-based; conditions: Homo sapiens, A498, Renal, read-out: GI50
# Method: (§1) Cells were treated on Days 1, 3, 5, and 7 with 5 μL of media, vehicle, or drug. Peloruside A was resuspended in 0.1% DMSO and added to wells to a final concentration of 0.01, 0.1, 1, 10 or 100 nM. Taxol® (Sigma-Aldrich) was resuspended in 0.1% ethanol and added to cells to a final concentration of 0.1, 1, 10, 100, or 1000 nM.
# (§2) The amount of surviving cells was measured using the sulforhodamine B (SRB) assay as previously described (Skehan et al., New colorimetric cytotoxicity assay for anticancer-drug screening. J. Natl. Cancer Inst., 1990. 82(13): p. 1107-12). Cells were fixed on Days 5, 7, and 9 (representing 4, 6, and 8 days of exposure to drug or control, respectively) with 50% (w/v) trichloroacetic acid for 1 hour at 4° C., rinsed thoroughly with water, and dried overnight. The dried cells were stained with 4% sulforhodamine B in 1% acetic acid, rinsed thoroughly and dried overnight. The bound dye was resuspended in 10 mM Tris and the absorbance was read at 492 nm. Percent growth inhibition (GI) was calculated as follows: %GI=(1−(absorbance sample/absorbance vehicle))×100. The absorbance value for each drug concentration and control represents the average of 6 replicates. The %GI was plotted against the log[drug] to generate the growth curves. The concentration of drug required to inhibit growth by 50% (GI50) was calculated for each time point.
# DU-145 = experiment: SRB cytotoxicity assay, DU-145; assay type: cell-based; conditions: Homo sapiens, DU-145, Prostate, read-out: GI50
# Method: as §1, §2
# HCT-116 = experiment: SRB cytotoxicity assay, HCT-116; assay type: cell-based; conditions: Homo sapiens, HCT-116, Colon, read-out: GI50
# Method: as §1, §2
# PC-3 = experiment: SRB cytotoxicity assay, PC-3; assay type: cell-based; conditions: Homo sapiens, PC-3, Prostate, read-out: GI50
# Method: as §1, §2
# Capan-1 = experiment: SRB cytotoxicity assay, Capan-1; assay type: cell-based; conditions: Homo sapiens, Capan-1, Pancreas, read-out: GI50
# Method: as §1, §2
# SK-MEL-28 = experiment: SRB cytotoxicity assay, SK-MEL-28; assay type: cell-based; conditions: Homo sapiens, SK-MEL-28, Melanoma, read-out: GI50
# Method: as §1, §2
# NCI-H23 = experiment: SRB cytotoxicity assay, NCI-H23; assay type: cell-based; conditions: Homo sapiens, NCl-H23, Lung, read-out: GI50
# Method: as §1, §2
# NCI-H460 = experiment: SRB cytotoxicity assay, NCI-H460; assay type: cell-based; conditions: Homo sapiens, NCl-H460, Lung, read-out: GI50
# Method: as §1, §2
# NCI-H1395 = experiment: SRB cytotoxicity assay, NCI-H1395; assay type: cell-based, human; conditions: NCl-H1395, Lung
# Method: as §1, §2
# ptx22 cells = experiment: Cell Titer-Glo cell viability, Taxol-resistant ptx22 cells; conditions: Homo sapiens, 48 h, read-out: concentration to reduce cell viability to approximately 50%
# Method: (§3) These cell lines have specific amino acid mutations in tubulin that prevent Taxol®-binding. […] Synthetic (+)-Peloruside A was used for the present example.
# (§4) 1A9, ptx10 and ptx22 cells were plated in 96-well plates to approximately 50% confluency. On the next day, Taxol® or Peloruside A was added to each well and incubated for 48 hours. A final concentration of 1, 2, 3, 4, 5, 8, 10, 20, 30, 50, 100, 300, 500, or 1000 nM of Taxol® was used. A final concentration of 10, 20, 30, 40, 50 or 70 nM of Peloruside A was used. Cell viability was measured using the Cell Titer-Glo Luminescent Cell Viability Assay (Promega). FIGS. 80-82 show bar graphs of cell viability at various concentrations of Peloruside A and Taxol®.
# HCT-15 = experiment: SRB cytotoxicity assay, HCT-15; assay type: cell-based; conditions: Homo sapiens, HCT-15, Colon, read-out: GI50
# Method: as §1, §2
# [1] = system: BSC-1 (Monkey Kidney epithelial) cells; experiment: Immunofluorescent staining of tubulin in BSC-1 cells; assay type: cell-based; conditions: 200 nM of Taxol® or 50 nM of Peloruside A
# SK-MEL-5 = experiment: SRB cytotoxicity assay, SK-MEL-5; assay type: cell-based; conditions: Homo sapiens, SK-MEL-5, Melanoma, read-out: GI50
# Method: as §1, §2
# Hep-G2 = experiment: SRB cytotoxicity assay, Hep-G2; assay type: cell-based; conditions: Homo sapiens, Hep G2, Liver, read-out: GI50
# Method: as §1, §2
# LoVo = experiment: SRB cytotoxicity assay, LoVo; assay type: cell-based; conditions: Homo sapiens, Colon, read-out: GI50
# Method: as §1, §2
# NCI-H2887 = experiment: SRB cytotoxicity assay, NCI-H2887; assay type: cell-based, human; conditions: NCl-H2887, Lung
# Method: as §1, §2
# ptx10 cells = experiment: Cell Titer-Glo cell viability, Taxol-resistant ptx10 cells; conditions: Homo sapiens, PTX10, 48 h, read-out: concentration to reduce cell viability to approximately 50%
# Method: as §3, §4
# BT-549 = experiment: SRB cytotoxicity assay, BT-549; assay type: cell-based; conditions: Homo sapiens, BT-549, Breast, read-out: GI50
# Method: as §1, §2
# CAKI-1 = experiment: SRB cytotoxicity assay, CAKI-1; assay type: cell-based; conditions: Homo sapiens, CAK1-1, Renal, read-out: GI50
# Method: as §1, §2
# SK-HEP-1 = experiment: SRB cytotoxicity assay, SK-HEP-1; assay type: cell-based; conditions: Homo sapiens, SK-HEP-1, Liver, read-out: GI50
# Method: as §1, §2
# SK-OV-3 = experiment: SRB cytotoxicity assay, SK-OV-3; assay type: cell-based; conditions: Homo sapiens, SK-OV-3, Ovarian, read-out: GI50
# Method: as §1, §2
smiles,measurement,setting,value
"CC(=O)O[C@H]1C(=O)[C@@]2(C)[C@H]([C@H](OC(=O)c3ccccc3)[C@]3(O)C[C@H](OC(=O)[C@H](O)[C@@H](NC(=O)c4ccccc4)c4ccccc4)C(C)=C1C3(C)C)[C@]1(OC(C)=O)CO[C@@H]1C[C@@H]2O [Paclitaxel, paclitaxel, reference compound]",GI50,"A498; 96 h, 4 Days",46.1 nM
same,GI50,"A498; 144 h, 6 Days",9.75 nM
same,GI50,"A498; 192 h, 8 Days",7.57 nM
same,GI50,"DU-145; 96 h, 4 Days",0.54 nM
same,GI50,"DU-145; 144 h, 6 Days",0.53 nM
same,GI50,"DU-145; 192 h, 8 Days",0.49 nM
same,GI50,"HCT-116; 96 h, 4 Days",1 nM
same,GI50,"HCT-116; 144 h, 6 Days",0.58 nM
same,GI50,"HCT-116; 192 h, 8 Days",0.3 nM
same,GI50,"PC-3; 96 h, 4 Days",0.78 nM
same,GI50,"PC-3; 144 h, 6 Days",0.47 nM
same,GI50,"PC-3; 192 h, 8 Days",0.27 nM
same,GI50,"Capan-1; 96 h, 4 Days",5.68 nM
same,GI50,"Capan-1; 144 h, 6 Days",0.91 nM
same,GI50,"Capan-1; 192 h, 8 Days",1.43 nM
same,GI50,"SK-MEL-28; 96 h, 4 Days",0.76 nM
same,GI50,"SK-MEL-28; 144 h, 6 Days",0.2 nM
same,GI50,"SK-MEL-28; 192 h, 8 Days",0.01 nM
same,GI50,"NCI-H23; NCI-H23, 96 h, 4 Days",1 nM
same,GI50,"NCI-H23; NCI-H23, 144 h, 6 Days",1.12 nM
same,GI50,"NCI-H23; NCI-H23, 192 h, 8 Days",0.18 nM
same,GI50,"NCI-H460; NCI-H460, 96 h, 4 Days",0.25 nM
same,GI50,"NCI-H460; NCI-H460, 144 h, 6 Days",0.57 nM
same,GI50,"NCI-H460; NCI-H460, 192 h, 8 Days",0.56 nM
same,GI50,"NCI-H1395; Homo sapiens, NCI-H1395, 144 h, 6 Days, read-out: GI50",6.81 nM
same,GI50,"NCI-H1395; Homo sapiens, NCI-H1395, 192 h, 8 Days, read-out: GI50",5.27 nM
same,GI50,NCI-H1395; 4 Days,4 Days: Resistant
same,IC50,ptx22 cells,> 100 nM
same,GI50,"HCT-15; 96 h, 4 Days",49.1 nM
same,GI50,"HCT-15; 144 h, 6 Days",24 nM
same,GI50,"HCT-15; 192 h, 8 Days",26.7 nM
same,formation of a bipolar spindle,[1],the bipolar spindle does not form
same,GI50,"SK-MEL-5; 96 h, 4 Days",0.82 nM
same,GI50,"SK-MEL-5; 144 h, 6 Days",1 nM
same,GI50,"SK-MEL-5; 192 h, 8 Days",0.27 nM
same,GI50,"Hep-G2; HepG2, 96 h, 4 Days",2.82 nM
same,GI50,"Hep-G2; HepG2, 144 h, 6 Days",0.47 nM
same,GI50,"Hep-G2; HepG2, 192 h, 8 Days",0.63 nM
same,GI50,"LoVo; 96 h, 4 Days",1.91 nM
same,GI50,"LoVo; 144 h, 6 Days",1.95 nM
same,GI50,"LoVo; 192 h, 8 Days",3.92 nM
same,GI50,"NCI-H2887; Homo sapiens, NCI-H2887, 144 h, 6 Days, read-out: GI50",643 nM
same,GI50,"NCI-H2887; Homo sapiens, NCI-H2887, 192 h, 8 Days, read-out: GI50",6.16 nM
same,GI50,NCI-H2887; 4 Days,4 Days: Resistant
same,IC50,ptx10 cells,> 100 nM
same,GI50,"BT-549; 96 h, 4 Days",1.76 nM
same,GI50,"BT-549; 144 h, 6 Days",1.2 nM
same,GI50,"BT-549; 192 h, 8 Days",0.18 nM
same,GI50,"CAKI-1; CAKI-1, 96 h, 4 Days",4.52 nM
same,GI50,"CAKI-1; CAKI-1, 144 h, 6 Days",1.21 nM
same,GI50,"CAKI-1; CAKI-1, 192 h, 8 Days",1.17 nM
same,GI50,"SK-HEP-1; SK-HEP1, 96 h, 4 Days",5.6 nM
same,GI50,"SK-HEP-1; SK-HEP1, 144 h, 6 Days",2.85 nM
same,GI50,"SK-HEP-1; SK-HEP1, 192 h, 8 Days",0.45 nM
same,GI50,"SK-OV-3; 144 h, 6 Days",2.21 nM
same,GI50,"SK-OV-3; 192 h, 8 Days",1.07 nM
